# Data reported in the supplement of paper PMC10307832.
# Compound: CC1=C(N=C(N=C1N)[C@H](CC(=O)N)NC[C@@H](C(=O)N)N)C(=O)N[C@@H]([C@H](C2=CN=CN2)OC3C(C(C(C(O3)CO)O)O)OC4C(C(C(C(O4)CO)O)OC(=O)N)O)C(=O)N[C@H](C)[C@H]([C@H](C)C(=O)N[C@@H]([C@@H](C)O)C(=O)NCCC5=NC(=CS5)C6=NC(=CS6)C(=O)NCCC[S+](C)C)O [Bleomycin] + CC1(C)CCC(c2ccc(Cl)cc2)=C(CN2CCN(c3ccc(C(=O)NS(=O)(=O)c4ccc(N[C@H](CCN5CCOCC5)CSc5ccccc5)c(S(=O)(=O)C(F)(F)F)c4)cc3)CC2)C1 [Navitoclax] (partner 0.5 µM)
# Experiment: relative viability (nuclei count vs DMSO), 5 days (fraction); higher = more cells survive
# Settings: first compound 1 µM; main component drawn
# Outline: (§1)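 Medians of duplicate plates are given as relative viability. That measure is the nuclei count in treated wells divided by the count in vehicle wells. Counts were taken on 4× images of lung cancer cell lines in 1536-well plates, 5 days after pin-tool dosing the day after seeding with one drug alone or a fixed anchor-drug dose plus five library-drug doses (not always all listed) in √10 steps.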
row,Cell Line,relative viability
1,RERF-LC-KJ,0.192

# Compound: COc1cc([C@@H]2c3cc4c(cc3[C@@H](O[C@@H]3O[C@@H]5CO[C@@H](C)O[C@H]5[C@H](O)[C@H]3O)[C@H]3COC(=O)[C@H]23)OCO4)cc(OC)c1O [Etoposide] + COc1cc2c(Oc3ccc(NC(=O)C4(C(=O)Nc5ccc(F)cc5)CC4)cc3F)ccnc2cc1OCCCN1CCOCC1 [Foretinib] (partner 0.25 µM)
# Experiment: as above
# Settings: first compound 0.01 µM
# Outline: as §1
row,Cell Line,relative viability
1,NCI-H1355,0.812
2,NCI-H322M,0.813
3,NCI-H1437,1.21
4,NCI-H1755,0.958
5,NCI-H2023,0.987
6,HCC-15,1.07
7,NCI-H1793,0.491
8,PC-3 [JPC-3],0.947
9,EKVX,1.09
10,LC-2-ad,0.898
11,NCI-H1944,0.697
12,NCI-H1975,0.914
13,SK-LU-1,0.765
14,RERF-LC-KJ,0.788

# Same assay, conditions: first compound 0.03162 µM
row,Cell Line,relative viability
1,NCI-H1355,0.998
2,NCI-H322M,1
3,NCI-H1437,1.2
4,NCI-H1755,0.974
5,NCI-H2023,0.886
6,HCC-15,1.02
7,NCI-H1793,0.644
8,PC-3 [JPC-3],1.06
9,EKVX,0.711
10,LC-2-ad,0.896
11,NCI-H1944,0.95
12,NCI-H1975,0.938
13,SK-LU-1,0.701
14,RERF-LC-KJ,0.866

# Same assay, conditions: first compound 0.1 µM
row,Cell Line,relative viability
1,NCI-H1355,0.828
2,NCI-H322M,0.831
3,NCI-H1437,1.27
4,NCI-H1755,0.919
5,NCI-H2023,0.814
6,HCC-15,1.02
7,PC-3 [JPC-3],1.06
8,EKVX,0.448
9,LC-2-ad,0.696
10,NCI-H1944,0.578
11,NCI-H1975,0.895
12,SK-LU-1,0.484
13,RERF-LC-KJ,0.639

# Same assay, conditions: first compound 0.3162 µM
row,Cell Line,relative viability
1,NCI-H1355,0.507
2,NCI-H322M,0.864
3,NCI-H1437,0.943
4,NCI-H1755,0.883
5,NCI-H2023,0.352
6,HCC-15,0.314
7,NCI-H1793,0.503
8,PC-3 [JPC-3],0.906
9,EKVX,0.237
10,LC-2-ad,0.424
11,NCI-H1944,0.471
12,NCI-H1975,0.91
13,SK-LU-1,0.329
14,RERF-LC-KJ,0.83

# Same assay, conditions: first compound 1 µM
row,Cell Line,relative viability
1,NCI-H1355,0.285
2,NCI-H322M,0.483
3,NCI-H1437,0.44
4,NCI-H1755,0.869
5,NCI-H2023,0.218
6,HCC-15,0.157
7,NCI-H1793,0.248
8,PC-3 [JPC-3],0.897
9,EKVX,0.303
10,LC-2-ad,0.308
11,NCI-H1944,0.347
12,NCI-H1975,0.286
13,SK-LU-1,0.18
14,RERF-LC-KJ,0.767

# Compound: COc1cc([C@@H]2c3cc4c(cc3[C@@H](O[C@@H]3O[C@@H]5CO[C@@H](C)O[C@H]5[C@H](O)[C@H]3O)[C@H]3COC(=O)[C@H]23)OCO4)cc(OC)c1O [Etoposide] + CC1(C)CCC(c2ccc(Cl)cc2)=C(CN2CCN(c3ccc(C(=O)NS(=O)(=O)c4ccc(N[C@H](CCN5CCOCC5)CSc5ccccc5)c(S(=O)(=O)C(F)(F)F)c4)cc3)CC2)C1 [Navitoclax] (partner 0.5 µM)
# Experiment: as above
# Settings: first compound 0.01 µM
# Outline: as §1
row,Cell Line,relative viability
1,NCI-H1355,0.881
2,NCI-H322M,1.29
3,NCI-H1437,1.11
4,NCI-H1755,0.917
5,NCI-H2023,0.99
6,HCC-15,0.652
7,NCI-H1793,0.382
8,PC-3 [JPC-3],0.784
9,EKVX,0.892
10,LC-2-ad,0.586
11,NCI-H1944,1.11
12,NCI-H1975,1.09
13,SK-LU-1,0.633
14,RERF-LC-KJ,0.829

# Same assay, conditions: first compound 0.03162 µM
row,Cell Line,relative viability
1,NCI-H1355,1.17
2,NCI-H322M,1.37
3,NCI-H1437,1.01
4,NCI-H1755,1.03
5,NCI-H2023,0.964
6,HCC-15,0.647
7,NCI-H1793,0.564
8,PC-3 [JPC-3],0.825
9,EKVX,0.983
10,LC-2-ad,0.446
11,NCI-H1944,1
12,NCI-H1975,1.33
13,SK-LU-1,0.975
14,RERF-LC-KJ,0.94

# Same assay, conditions: first compound 0.1 µM
row,Cell Line,relative viability
1,NCI-H1355,0.479
2,NCI-H322M,1.01
3,NCI-H1437,1.01
4,NCI-H1755,1.07
5,NCI-H2023,0.929
6,HCC-15,0.626
7,PC-3 [JPC-3],0.6
8,EKVX,0.759
9,LC-2-ad,0.405
10,NCI-H1944,0.63
11,NCI-H1975,1.06
12,SK-LU-1,0.468
13,RERF-LC-KJ,0.957

# Same assay, conditions: first compound 0.3162 µM
row,Cell Line,relative viability
1,NCI-H1355,0.684
2,NCI-H322M,0.886
3,NCI-H1437,0.524
4,NCI-H1755,0.939
5,NCI-H2023,0.423
6,HCC-15,0.31
7,NCI-H1793,0.387
8,PC-3 [JPC-3],0.787
9,EKVX,0.446
10,LC-2-ad,0.276
11,NCI-H1944,0.593
12,NCI-H1975,0.701
13,SK-LU-1,0.144
14,RERF-LC-KJ,0.829

# Same assay, conditions: first compound 1 µM
row,Cell Line,relative viability
1,NCI-H1355,0.323
2,NCI-H322M,0.574
3,NCI-H1437,0.296
4,NCI-H1755,0.882
5,NCI-H2023,0.347
6,HCC-15,0.125
7,NCI-H1793,0.324
8,PC-3 [JPC-3],0.703
9,EKVX,0.251
10,LC-2-ad,0.183
11,NCI-H1944,0.3
12,NCI-H1975,0.468
13,SK-LU-1,0.166
14,RERF-LC-KJ,0.488
